Assay [1] can be described thus: Oxford Cup method antifungal test, Botrytis cinerea. It is filed as cell-based, Botrytis cinerea (CGMCC3.3789). As to conditions: Staphylococcus, CGMCC3, 120 h; Oxford Cup method, PDA plates, 28° C., 5 days; strain CGMCC 3.3789; read-out: minimum inhibitory concentration (MIC). The procedure:
(§1) Preparation of the test sample solution: The test sample was the pure compound I separated and purified in the above Example 1. An appropriate amount of sample was accurately weighed and mixed with DMSO to obtain a solution of the required concentration for testing the antifungal activity. The indicator bacteria used in this experiment were Botrytis cinerea (CGMCC3.3789) and Penicillium citrinum (ATCC1109).
(§2) Oxford Cup method for antifungal test: 100 μL of spore suspension was spread evenly on PDA plates, and Oxford cups were placed in the center of the plates. 100 μL of compound solutions of different concentrations were added into the Oxford cups separately, the concentrations of the compound solutions were 32 μg/mL, 16 μg/mL, 8 μg/mL, 4 μg/mL, 2 μg/mL, 1 μg/mL, and 0.5 μg/mL. DMSO was used as a negative control, and prochloraz of the same concentration was used as a positive control. After incubation at 28° C. for 5 days, the growth of fungi was observed. Four culture plates were set up for each treatment, and the whole experiment was repeated three times.

The subject of assay [2] is Staphylococcus griseus (CGMCC 3.3789). Described as above. It is filed as cell-based, Botrytis cinerea (CGMCC3.3789). As to conditions: result in words. The procedure:
as §1, §2

The test system of assay [3] is Penicillium oryzae (ATCC 1109). Briefly: Oxford Cup method antifungal test, Penicillium citrinum. The class given is cell-based, Penicillium citrinum (ATCC1109). As to the method: as §1, §2

SMILES strings stand for the structures. Values after ≈ are worked out from the molar mass of the structure shown.

As to `CC[C@@H](C)C[C@H]1C(=O)O[C@H](C)[C@H](NC(=O)c2cccc(NC=O)c2O)C(=O)O[C@@H](C)[C@@H]1CC(=O)C(C)C` [Compound I, Antimycin I], the MIC in assay [1] was found to be 2 µg/mL (≈ 3.86 µM); in assay [3] (Penicillium, ATCC1109, 120 h, Oxford Cup method, PDA plates, 28° C., 5 days, strain ATCC 1109, read-out: minimum inhibitory concentration (MIC)) it was 4 µg/mL (≈ 7.71 µM). Moreover, the “resistance activity against Botrytis cinerea (antifungal activity screening)” value in assay [2] is on record as “significant resistance activity”. The “resistance activity against Penicillium citrinum (antifungal activity screening)” value in assay [3] (result in words) is listed as “significant resistance activity”.

The record behind these values is US11851692B2, “Method for preparing an antimycin compound produced by Streptomyces sp.4-7” (priority 2022, dated 2023).
